PubChem BioAssay AID977621 (Broad Institute, 2014)
Records with an inconclusive call do not appear. The source made the active and inactive calls.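 How the source made its calls: active means Wild-type ribosome reporter drop at least double the humanized mutant ribosome reporter drop, growth loss under a set limit; inconclusive means no clear call, values can overlap the other calls; inactive means the rest.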

Test system: E. coli wild-type GFP strain growth, fluorescence, 24 h
Assay: wild-type E. coli growth inhibition versus H69 humanized strain – H69 mutant RFP, wild-type GFP, cherry-pick, dose response (AID 977621);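 further: wild-type GFP and H69 mutant RFP strains grown together 50/50 in each well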
[1] = E. coli mixed culture, 24 h, measured here: total growth OD600, test 2

Row | Compound | AC50 | AC50 [1] [µM]
1 | N#Cc1nc(Cc2ccccc2)oc1N1CCCC1 | > 100 µM (inactive) | 
2 | CC(C)(C)c1ccc(-c2noc(CCC(=O)NCc3ccco3)n2)cc1 |  | > 100
3 | CN1OC[C@@H]2CN(C(=O)c3ccco3)[C@H](c3ccc(-c4ccc(C#N)cc4)cc3)C[C@@H]21 |  | > 100
4 | Cc1nc2ccc(Br)cc2c(=O)n1Cc1cccs1 | > 100 µM (inactive) | 50.2
5 | O=C(Cc1cccc2ccccc12)Nc1ccccc1C(=O)O |  | 50.2
6 | COc1ccc(CCNc2nc(-c3ccncc3)cs2)cc1OC | > 100 µM (inactive) | 
7 | COc1ccc(OC)c(C(=O)COC(=O)c2ccc([N+](=O)[O-])o2)c1 | > 100 µM (inactive) | > 100
8 | COc1ccc(NC(=O)CCS(=O)(=O)c2ccccc2Cl)cc1S(=O)(=O)Nc1ccc(Cl)cc1 |  | > 100
9 | Cc1ccc(C#N)c(SCc2ccccc2F)n1 | > 100 µM (inactive) | 34.2
10 | COc1cccc(OCCNS(=O)(=O)c2ccccc2[N+](=O)[O-])c1 | > 100 µM (inactive) | 
11 | CC(C)(C)N(Cc1ccccc1)C(=O)CN1C(=O)c2ccccc2S1(=O)=O | > 100 µM (inactive) | 
12 | CC(C)(C)c1ccc(N2C(=O)CSC2c2cccnc2)cc1 (stereo unspecified) |  | > 100
13 | Nc1ccccc1C#CC(=O)c1ccccc1 | > 100 µM (inactive) | 
14 | COc1cccc(C(=O)NC(C)c2ccc(Br)cc2)c1 (stereo unspecified) |  | > 100
15 | CCN(C(=O)COC(=O)c1cn(-c2ccccc2)nc1-c1ccccc1)C1CCS(=O)(=O)C1 (stereo unspecified) |  | > 100
16 | CCCCNC(=O)c1cc2c(C)cc(C)cc2[nH]1 | > 100 µM (inactive) | 
17 | CCOc1cccc(-c2cc(-c3n[nH]c(=S)n3CC)c3ccccc3n2)c1 |  | 38.3
18 | COCC(C)NC(=O)c1nn(Cc2ccccc2)c(=O)c2ccccc12 (stereo unspecified) |  | 28.2
19 | Cc1ccc(C)c(N(CC(=O)NC2CCCC2)C(=O)c2oc(C(C)(C)C)cc2C)c1 | > 100 µM (inactive) | > 100
20 | Fc1cccc(CCN2C(=S)NC[C@@H]2CC2CCCCC2)c1 | > 100 µM (inactive) | 6.09
21 | Cc1nc(C)c(-c2ccn(S(=O)(=O)c3ccc(Cl)cc3)n2)o1 | > 100 µM (inactive) | 
22 | Cc1c(Cc2ccccc2)sc(NC(=O)C(C)(C)C)c1C(N)=O | > 100 µM (inactive) | 50.6
23 | COc1ccc(C)c2sc(N(CCN(C)C)C(=O)c3ccc(S(=O)(=O)N(C)c4ccccc4)cc3)nc12 | > 100 µM (inactive) | 

Row | Compound | AC50 | AC50 [1] [µM]
24 | Cc1ccc(C)c(N2CCN(C(=O)CCS(=O)(=O)c3ccc4c(c3)oc(=O)n4C)CC2)c1 |  | > 100
25 | Cc1ccc(CNC(=O)c2ccc(Br)o2)cc1 | > 100 µM (inactive) | 
26 | CCN(CC)CCN(C(=O)C1CCCCC1)c1nc2cc3c(cc2s1)OCO3 | > 100 µM (inactive) | 
27 | C[C@@H]1CN([C@@H](C)CO)C(=O)CCCn2nncc2CO[C@H]1CN(C)C(=O)Nc1ccc(C(F)(F)F)cc1 | > 100 µM (inactive) | 
28 | CCN(CC)CCN(C(=O)c1ccc2c(c1)CCCC2)c1nc2ccc(F)cc2s1 |  | 32.5
29 | COc1cccc(NC(=O)CN(C)CC(=O)Nc2ccc(Br)cc2)c1 | > 100 µM (inactive) | 
30 | CCc1cccc(NC(=O)CCC(=O)N2CCSc3ccccc32)c1 | > 100 µM (inactive) | 47.6
31 | CCN(C(=O)COC(=O)c1cc(-c2cccs2)nc2ccccc12)C1CCS(=O)(=O)C1 (stereo unspecified) | > 100 µM (inactive) | 
32 | O=C(O)c1cc(-c2ccc(Cl)s2)nc2ccccc12 |  | > 100
33 | O=C(c1cc(COc2ccc(F)cc2F)on1)N1CCCC(c2ccccc2)C1 (stereo unspecified) | > 100 µM (inactive) | 14.5
34 | COc1cccc(OC)c1CNC(=O)CCSCc1ccccc1F |  | > 100
35 | Cc1ccc2nc(SCC(=O)c3ccc(O)cc3O)[nH]c2c1 | > 100 µM (inactive) | 
36 | O=C(O)c1ccc(-c2noc(-c3cccc(Cl)c3)n2)cc1 | > 100 µM (inactive) | 
37 | COCC#Cc1ccc2c(c1)O[C@@H](CN(C)S(=O)(=O)c1cccc(F)c1)[C@@H](C)CN([C@H](C)CO)S2(=O)=O |  | 51.3
38 | CC1Cc2ccccc2N1C(=O)CN1C(=O)NC(C)(CCc2ccccc2)C1=O (stereo unspecified) |  | > 100
39 | CSc1nc2ccc(NC(=O)c3c(-c4ccccc4)noc3C)cc2s1 |  | 46.5
40 | O=C(c1ccc2c(c1)CCN2S(=O)(=O)c1ccccc1)N1CCN(c2ccccc2)CC1 | > 100 µM (inactive) | > 100
41 | O=C(CSc1nc2ccccc2[nH]1)Nc1cccc(S(=O)(=O)N2CCOCC2)c1 | > 100 µM (inactive) | 33.9
42 | Cc1noc(C)c1NC(=O)Nc1ccc2c(c1)C(=O)N([C@H](C)CO)C[C@H](C)[C@@H](CN(C)C(=O)Nc1ccc3c(c1)OCO3)OCCCC[C@@H](C)O2 |  | > 92
43 | COc1ccc(NC(=O)Nc2cccc3c2O[C@@H](CN(C)S(=O)(=O)c2ccc(Cl)cc2)[C@H](C)CN([C@H](C)CO)C3=O)cc1 | > 100 µM (inactive) | 
44 | O=C(Nc1ccc(Cl)cn1)c1cc2c(s1)-c1ccccc1OC2 |  | > 100
45 | NC(=O)c1ccsc1NC(=O)COC(=O)CSc1ccc(Cl)cc1 | > 100 µM (inactive) | > 100
46 | CCNC(=O)C1(C)CCCN(Cc2cccc3ccccc23)C1 (stereo unspecified) | > 100 µM (inactive) | > 100

Row | Compound | AC50 | AC50 [1] [µM]
47 | CCC(=O)Nc1nc2c(OC)ccc(OC)c2s1 |  | > 100
48 | Cc1cc(NC(=O)COC(=O)CSCc2ccc(Cl)c(Cl)c2)no1 | > 100 µM (inactive) | > 100
49 | Cc1cc(Cl)ccc1OCCCC(=O)OCC(N)=O |  | > 100
50 | CCCc1nc2cc(C)c(Br)c(C)n2c1CC1CCCCC1 | > 100 µM (inactive) | 48.9
51 | CCOc1ncccc1C(=O)OCC(=O)NCCCc1ccccc1 |  | > 100
52 | O=C(CCNC(=O)c1ccco1)Nc1cccc(Br)c1 |  | > 100
53 | C[C@@H]1CCCCO[C@@H](CN(C)C(=O)c2ccccc2)[C@H](C)CN([C@@H](C)CO)C(=O)c2cc(NC(=O)c3ccccc3)ccc2O1 | > 100 µM (inactive) | 
54 | Cc1ccc(-c2c[n+](CC(=O)Nc3ccccc3)c3n2CCC3)cc1 |  | > 100
55 | COc1ccc(C(=O)N(c2ccccc2)c2nccc3ccccc23)cc1OC | > 100 µM (inactive) | 
56 | Cc1ccc(S(=O)(=O)Nc2ccc3c(c2)C(=O)N([C@H](C)CO)C[C@@H](C)[C@H](CN(C)C(=O)c2ccccc2)OCCCC[C@@H](C)O3)cc1 |  | > 100
57 | CCOC(=O)C(CC)Sc1cc(C)nc2ccc(OC)cc12 (stereo unspecified) |  | > 100
58 | Cc1ccc(C(=O)Nc2ccc3ncccc3c2)cc1 | > 100 µM (inactive) | 
59 | CCOc1ccc(CCNC(=O)CCc2nc3ccccc3[nH]2)cc1OCC | > 100 µM (inactive) | > 100
60 | Cc1cc(OCCCCOc2ccc(S(N)(=O)=O)c(C)c2)ccc1S(N)(=O)=O | > 100 µM (inactive) | 49.4
61 | CCCCC(=O)N1CCN(c2nc3ccc(Br)cc3s2)CC1 | > 100 µM (inactive) | 31
62 | CC(C)Oc1ccc(C(=O)Nc2cccc3cccnc23)cc1 |  | > 100
63 | Fc1ccc(-n2cc(CNCCc3cccnc3)c(-c3ccccc3Cl)n2)cc1 | > 100 µM (inactive) | 27.8
64 | O=C(NCc1cccnc1)C1CCN(S(=O)(=O)c2cc([N+](=O)[O-])ccc2Cl)CC1 |  | > 100
65 | O=C1C(c2ccccc2)c2ccccc2N1Cc1ccccc1 (stereo unspecified) | > 100 µM (inactive) | 
66 | CC(=O)Nc1ccc(-c2ccnc3c2CC(C)(C(=O)Nc2ccc4c(c2)OCO4)O3)cc1 (stereo unspecified) |  | > 100
67 | COc1cc(C2CC(=O)Oc3cc(C)cc(C)c32)cc(OC)c1OC (stereo unspecified) | > 100 µM (inactive) | 
68 | Cc1ccc(Nc2cc(C(=O)NCCCN3CCOCC3)c3ccccc3n2)cc1C | > 100 µM (inactive) | 
69 | COc1ccc(-c2noc(=O)n2Cc2ccccc2Cl)cc1 | > 100 µM (inactive) | 

Row | Compound | AC50 | AC50 [1] [µM]
70 | COc1ccccc1CC(=O)NCCc1c[nH]c2ccccc12 | > 100 µM (inactive) | 
71 | Cc1cc(C(C)(C)C)oc1C(=O)N(CC(=O)NC1CCCC1)c1c(C)cccc1C | > 100 µM (inactive) | > 100
72 | O=S1(=O)N[C@H](Cc2ccccc2)COc2cc(N3CCSCC3)ccc21 |  | > 100
73 | Cc1ccccc1OCC(O)Cn1c(NCc2ccco2)nc2c1c(=O)n(C)c(=O)n2C (stereo unspecified) | > 100 µM (inactive) | > 100
74 | O=C(Nc1ccc2nc3n(c(=O)c2c1)CCCCC3)c1c(F)ccc([N+](=O)[O-])c1F | > 100 µM (inactive) | 
75 | C=CCN(c1ccccc1)S(=O)(=O)c1cccc2cccnc12 |  | > 100
76 | CN(CCOc1ccccc1)S(=O)(=O)c1ccccc1C#N |  | > 100
77 | OC[C@H]1[C@H](c2ccc(-c3ccc(F)cc3)cc2)[C@@H]2CN(Cc3ccncc3)CCCCN12 | > 100 µM (inactive) | 
78 | O=C(CN1CCN(c2ccc(O)cc2)CC1)Nc1cc(S(=O)(=O)N2CCCC2)ccc1Cl | > 100 µM (inactive) | 
79 | CCN(CC)CCN(C(=O)c1ccc2c(c1)OCCO2)c1nc2cc(C)cc(C)c2s1 | > 100 µM (inactive) | 
80 | O=C(c1cc(C(=O)N2CCOCC2)c2nc3ccccc3n2c1)c1cc(Cl)cc(Cl)c1O | > 100 µM (inactive) | > 100
81 | O=C(C[C@@H]1CC[C@@H]2[C@H](COC[C@H](O)CN2C(=O)Nc2ccc(Cl)cc2)O1)N1CCCCC1 | > 100 µM (inactive) | 46
82 | Cc1ccc(CSCC(=O)N(C)CC(=O)Nc2ccccc2Cl)cc1 | > 100 µM (inactive) | 
83 | Cc1cccc(-c2ccc([C@H]3[C@@H](CO)N4CCCCN(S(=O)(=O)c5ccccc5C)C[C@H]34)cc2)c1 |  | 27.2
84 | CSc1ccccc1OCc1cc(C(=O)N(C)Cc2nonc2C)no1 |  | > 100
85 | CC(NC(=O)C12CC3CC(C)(CC(C)(C3)C1)C2)c1ccncc1 (stereo unspecified) |  | > 100
86 | Cc1n[nH]c(C)c1S(=O)(=O)N1CCCC(C(=O)Nc2ccc(Br)cc2)C1 (stereo unspecified) | > 100 µM (inactive) | 
87 | Cc1nn2c(NCc3ccccn3)cc(C(C)C)nc2c1-c1ccccc1 | > 100 µM (inactive) | 
88 | CCOc1ccccc1N1CC(C(=O)Nc2cccc(S(=O)(=O)N3CCCCC3)c2)CC1=O (stereo unspecified) |  | > 100
89 | O=C1CCCN1CCCNc1ncnc2c1[nH]c1ccc(Cl)cc12 |  | 40.5
90 | COc1cc(C(F)(F)F)c(C(=O)N(C)Cc2ccc(Cl)c(Cl)c2)cn1 | > 100 µM (inactive) | 44.6
91 | Fc1cccc(Cc2noc(CN3CCCCC3CCc3ccccn3)n2)c1 (stereo unspecified) | > 100 µM (inactive) | > 100
92 | S=c1[nH]c2cc(Cl)ccc2s1 | > 100 µM (inactive) | 
